What was measured:
Format in all cases: in vivo
[1] = test system: Echinochloa crus-galli (L.) P. Beauv. var. formosensis Ohwi; experiment: Test for Herbicidal Effect in Flooding Treatment (#1), ECHDG; conditions: for ECHDG #1 herbicidal effect (growth inhibition rating 0-5): flooding treatment #1; for ECHDG #1 herbicidal effect (growth inhibition grade): flooding treatment at seeding, dose 2 kg/ha, visual observation on day 21
Procedure, shortened: (§1)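 Visual scores from 0 (<10% inhibition) to 5 (≥90% or complete withering) were taken 21 days after treatment of glasshouse-grown plants. Seeds were sown in soil flooded for 24 h beforehand, and compound was applied dropwise onto the surface at 2 kg/ha as an acetone solution diluted in water with Tween 80.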

Monochoria vaginalis = experiment: Test for Herbicidal Effect in Flooding Treatment (#1), MONVA; conditions: for MONVA #1 herbicidal effect (growth inhibition rating 0-5): flooding treatment #1; for MONVA #1 herbicidal effect (growth inhibition grade): flooding treatment at seeding, dose 2 kg/ha, visual observation on day 21
Description: (#1) Test for Herbicidal Effect in Flooding Treatment: Styrol cups each having an opening diameter of 8 cm (about 52 cm^2) were respectively filled with soil (45 ml) which had been passed through a sieve (2 mm). Water (about 115 ml) was mixed with the soil such that the soil was flooded. After the soil stood still for 24 hours, Monochoria vaginalis, Echinochloa crus-galli (L.) P. Beauv. var. formosensis Ohwi, Cyperus difformis (umbrella sedge), and Scirpus juncoides were seeded. Each of the compounds of the present invention was dissolved in acetone, and the obtained product was then diluted with water containing Tween 80®. Each of the resultant chemical solutions was dropped on the entire surface of an associated one of treatment sections, so that each section was treated with 1 ml of the respective chemical solution (a dose of 2 kg/ha). After the treatment, the plants were grown in a glasshouse. On day 21, a survey was conducted on the herbicidal activity by visual observation, and evaluation was made according to the following criteria. 0: Growth inhibition effect is less than 10%. 1: Growth inhibition effect is equal to or greater than 10%, and less than 30%. 2; Growth inhibition effect is equal to or greater than 30%, and less than 50%. 3: Growth inhibition effect equal to or greater than 50%, and less than 70%. 4: Growth inhibition effect is equal to or greater than 70%, and less than 90%. 5: Growth inhibition effect is equal to or greater than 90%, or complete withering is achieved. ECHDG=Echinochloa crus-galli (L.) P. Beauv. var. formosensis Ohwi, MONVA=Monochoria vaginalis, SCIJU=Scirpus juncoides, CYMIC=Cyperus microiria.

[2] = test system: Echinochloa crus-galli (L.) P. Beauv. var. formosensis Ohwi; experiment: Test for Herbicidal Effect in Flooding Treatment (#2), ECHDG at 2-2.5 leaf stage; conditions: for ECHDG (2-2.5L) #2 herbicidal effect (growth inhibition rating 0-5): flooding treatment #2, 2-2.5 leaf stage; for ECHDG (2-2.5L) #2 herbicidal effect (growth inhibition grade): flooding treatment at 2-2.5 leaf stage, dose 0.2 kg/ha, visual observation on day 21
Procedure, shortened: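 Flooded muddy soil was seeded with the weed, and at 2–2.5 leaf stage compound in acetone/Tween 80 water was dropped on the water surface at 0.2 kg/ha. Plants were kept in a glasshouse and scored visually on day 21 from 0 (<10% growth inhibition) to 5 (≥90% or complete withering).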

Scirpus juncoides = experiment: Test for Herbicidal Effect in Flooding Treatment (#1), SCIJU; conditions: for SCIJU #1 herbicidal effect (growth inhibition rating 0-5): flooding treatment #1; for SCIJU #1 herbicidal effect (growth inhibition grade): flooding treatment at seeding, dose 2 kg/ha, visual observation on day 21
Procedure, shortened: as §1

Row | SMILES | ECHDG #1 herbicidal effect (growth inhibition rating 0-5) [1] | MONVA #1 herbicidal effect (growth inhibition rating 0-5) (Monochoria vaginalis) | ECHDG (2-2.5L) #2 herbicidal effect (growth inhibition rating 0-5) [2] | SCIJU #1 herbicidal effect (growth inhibition rating 0-5) (Scirpus juncoides) | ECHDG #1 herbicidal effect (growth inhibition grade) [1] | MONVA #1 herbicidal effect (growth inhibition grade) (Monochoria vaginalis) | ECHDG (2-2.5L) #2 herbicidal effect (growth inhibition grade) [2] | SCIJU #1 herbicidal effect (growth inhibition grade) (Scirpus juncoides) | inhibition at 200 g/ha ([2]; Echinochloa crus-galli, 504 h, flooding treatment (#2), ECHDG at 2-2.5 leaf stage, dose of 0.2 kg/ha, day 21, visual observation, read-out: growth inhibition effect) [%]
1 | [O-][S+](Cc1c(F)cccc1OCC(F)(F)C(F)F)c1ncc(Cl)s1 (stereo not drawn) [Compound 1B-12] | 5 (Growth inhibition effect is equal to or greater than 90%, or complete withering is achieved) | 5 (Growth inhibition effect is equal to or greater than 90%, or complete withering is achieved) | 5 (Growth inhibition effect is equal to or greater than 90%, or complete withering is achieved) | 5 (Growth inhibition effect is equal to or greater than 90%, or complete withering is achieved) | – | – | – | – | –
2 | [2H]C([2H])(c1c(Cl)cccc1OCC(F)(F)F)S(=O)(=O)c1ncc(Cl)s1 [Compound 1C-135] | – | – | – | – | 5 (Growth inhibition effect is equal to or greater than 90%, or complete withering is achieved) | 5 (Growth inhibition effect is equal to or greater than 90%, or complete withering is achieved) | 5 (Growth inhibition effect is equal to or greater than 90%, or complete withering is achieved) | 5 (Growth inhibition effect is equal to or greater than 90%, or complete withering is achieved) | –
3 | COc1cccc(Cl)c1CS(=O)(=O)c1ncc(Cl)s1 [Compound 1C-6] | – | – | – | – | 5 (Growth inhibition effect is equal to or greater than 90%, or complete withering is achieved) | 5 (Growth inhibition effect is equal to or greater than 90%, or complete withering is achieved) | 5 (Growth inhibition effect is equal to or greater than 90%, or complete withering is achieved) | 5 (Growth inhibition effect is equal to or greater than 90%, or complete withering is achieved) | ≥ 90
4 | [O-][S+](Cc1c(Cl)cccc1OC(F)F)c1ncc(Br)s1 (stereo not drawn) [Compound 1B-20] | 5 (Growth inhibition effect is equal to or greater than 90%, or complete withering is achieved) | 5 (Growth inhibition effect is equal to or greater than 90%, or complete withering is achieved) | 5 (Growth inhibition effect is equal to or greater than 90%, or complete withering is achieved) | 5 (Growth inhibition effect is equal to or greater than 90%, or complete withering is achieved) | – | – | – | – | –
5 | O=S(=O)(Cc1c(F)cccc1OC(F)F)c1ncc(Cl)s1 [Compound 1C-43] | – | – | – | – | 5 (Growth inhibition effect is equal to or greater than 90%, or complete withering is achieved) | 5 (Growth inhibition effect is equal to or greater than 90%, or complete withering is achieved) | 5 (Growth inhibition effect is equal to or greater than 90%, or complete withering is achieved) | 5 (Growth inhibition effect is equal to or greater than 90%, or complete withering is achieved) | –
6 | [O-][S+](Cc1c(F)cccc1OCC(F)(F)C(F)F)c1ncc(Cl)s1 (stereo not drawn) [Compound 1B-13] | 5 (Growth inhibition effect is equal to or greater than 90%, or complete withering is achieved) | 5 (Growth inhibition effect is equal to or greater than 90%, or complete withering is achieved) | 2 (Growth inhibition effect is equal to or greater than 30%, and less than 50%) | 5 (Growth inhibition effect is equal to or greater than 90%, or complete withering is achieved) | – | – | – | – | –
7 | CC(=O)C(C(C)=O)(c1c(F)cccc1OC(F)F)S(=O)(=O)c1ncc(Cl)s1 [Compound 1C-147] | – | – | – | – | 5 (Growth inhibition effect is equal to or greater than 90%, or complete withering is achieved) | 5 (Growth inhibition effect is equal to or greater than 90%, or complete withering is achieved) | 5 (Growth inhibition effect is equal to or greater than 90%, or complete withering is achieved) | 5 (Growth inhibition effect is equal to or greater than 90%, or complete withering is achieved) | –
8 | O=S(=O)(Cc1c(F)cccc1OCC(F)(F)F)c1ncc(Cl)s1 [Compound 1C-54] | – | – | – | – | 5 (Growth inhibition effect is equal to or greater than 90%, or complete withering is achieved) | 5 (Growth inhibition effect is equal to or greater than 90%, or complete withering is achieved) | 5 (Growth inhibition effect is equal to or greater than 90%, or complete withering is achieved) | 5 (Growth inhibition effect is equal to or greater than 90%, or complete withering is achieved) | –
9 | [O-][S+](Cc1c(OCC(F)F)cccc1C(F)(F)F)c1ncc(Cl)s1 (stereo not drawn) [Compound 1B-8] | 5 (Growth inhibition effect is equal to or greater than 90%, or complete withering is achieved) | 5 (Growth inhibition effect is equal to or greater than 90%, or complete withering is achieved) | 5 (Growth inhibition effect is equal to or greater than 90%, or complete withering is achieved) | 5 (Growth inhibition effect is equal to or greater than 90%, or complete withering is achieved) | – | – | – | – | –
10 | [2H]C([2H])(c1c(Cl)ccc(OC)c1Cl)S(=O)(=O)c1ncc(Cl)s1 [Compound 1C-137] | – | – | – | – | 5 (Growth inhibition effect is equal to or greater than 90%, or complete withering is achieved) | 5 (Growth inhibition effect is equal to or greater than 90%, or complete withering is achieved) | 5 (Growth inhibition effect is equal to or greater than 90%, or complete withering is achieved) | 5 (Growth inhibition effect is equal to or greater than 90%, or complete withering is achieved) | –
11 | O=S(=O)(Cc1c(Cl)cccc1OCCC(F)(F)F)c1ncc(Cl)s1 [Compound 1C-59] | – | – | – | – | 5 (Growth inhibition effect is equal to or greater than 90%, or complete withering is achieved) | 5 (Growth inhibition effect is equal to or greater than 90%, or complete withering is achieved) | 4 (Growth inhibition effect is equal to or greater than 70%, and less than 90%) | 5 (Growth inhibition effect is equal to or greater than 90%, or complete withering is achieved) | –
12 | O=S(=O)(Cc1c(Cl)cccc1OC(F)F)c1ncc(Cl)s1 [Compound 1C-42] | – | – | – | – | 5 (Growth inhibition effect is equal to or greater than 90%, or complete withering is achieved) | 5 (Growth inhibition effect is equal to or greater than 90%, or complete withering is achieved) | 5 (Growth inhibition effect is equal to or greater than 90%, or complete withering is achieved) | 5 (Growth inhibition effect is equal to or greater than 90%, or complete withering is achieved) | –
13 | CC(C)(c1c(F)cccc1OCC(F)F)S(=O)(=O)c1ncc(Cl)s1 [Compound 1C-143] | – | – | – | – | 5 (Growth inhibition effect is equal to or greater than 90%, or complete withering is achieved) | 5 (Growth inhibition effect is equal to or greater than 90%, or complete withering is achieved) | 4 (Growth inhibition effect is equal to or greater than 70%, and less than 90%) | 5 (Growth inhibition effect is equal to or greater than 90%, or complete withering is achieved) | –
14 | O=S(=O)(Cc1c(Cl)cccc1OC(F)(F)F)c1ncc(Cl)s1 [Compound 1C-49] | – | – | – | – | 5 (Growth inhibition effect is equal to or greater than 90%, or complete withering is achieved) | 5 (Growth inhibition effect is equal to or greater than 90%, or complete withering is achieved) | 5 (Growth inhibition effect is equal to or greater than 90%, or complete withering is achieved) | 5 (Growth inhibition effect is equal to or greater than 90%, or complete withering is achieved) | –

From patent US20200060276A1, “THIAZOLE COMPOUND AND HERBICIDE” (OAT Agrio Co., Ltd., priority 2017, published 2020)
